# Source: patent US20120328696A1, “ANTI-PARKINSONIAN COMPOUND ACETYLSALICYLIC ACID MALTOL ESTER” (Hutecs Korea Pharmaceutical Co., Ltd., priority 2008, published 2012)
# What was measured:
# [1] = test system: dopamine (DA), DOPAC, HVA; assay: Striatal DA, DOPAC and HVA after MPTP (HPLC); format: in vivo, mice; details: AME 25 mg/kg p.o., MPTP 25 mg/kg i.p. x7 days
# Protocol: AME (25 mg/kg, p.o) administration was started 4 days (twice daily) before the first injection of MPTP and continued for 7 consecutive days (once a day). MPTP was injected (25 mg/kg, i.p) once a day 1 h after AME treatment for consecutive 7 days.
# At 3 days after last MPTP injection, mice were killed by cervical dislocation. The brains were removed and placed on an ice-cooled plate. Striatum was dissected and immediately frozen on dry ice and stored at −70° C. until extraction. Brain regions obtained from each animal were weighed, ultrasonicated in 10% perchloric acid containing 10 ng/mg of the internal standard dihydroxybenzilamine, and centrifuged at 20,000×g for 10 min. The levels of DA and its metabolites 3,4-dihydroxyphenylacetic acid (DOPAC) and homovanillic acid (HVA) in brain tissue extracts were determined by HPLC coupled with electrochemical detection as described (Kim et al., 1999). Briefly, striatal tissues were sonicated in 0.2 M perchloric acid (20% W/V) containing the internal standard 3,4-dihydroxybenzylamine (10 mg wet tissue/ml). The homogenate was centrifuged and a 20 μl aliquot of the supernatant was injected into the HPLC equipped with a 3 μm C18 column. The mobile phase was comprised of 26 ml of acetonitrile, 21 ml of tetrahydrofuran and 960 ml of 0.15 M monochloroacetic acid (pH 3.0) containing 50 mg/l of EDTA and 200 mg/l of sodium octyl sulfate. The amount of DA, DOPAC and HVA were determined by comparison of peak height ratio of tissue sample with standards, and were expressed in nanograms per gram of wet weight of tissue.
# [2] = Kim et al., 1997a; cited from earlier work
# [3] = test system: glutathione peroxidase (GPx); details: Kim et al., 1996; cited from earlier work
structure (smiles),measurement,setting,value
"CC(=O)Oc1ccccc1C(=O)Oc1c(C)occc1=O [AME, 3-(2-methyl-4-pyronyl)-2-acetyloxybenzoate]",effect on MPTP-induced increase in DA turnover rate,[1]; p<0.01 vs. MPTP alone,significant attenuated
same,effect on MPTP-induced reduction in striatal HVA,[1]; p<0.01 vs. MPTP alone,significant attenuated
same,effect on MPTP-induced reduction in striatal dopamine (DA),[1]; p<0.01 vs. MPTP alone,significant attenuated
same,effect on MPTP-induced reduction in striatal DOPAC,[1]; p<0.05 vs. MPTP alone,significant attenuated
same,antithrombotic efficacy,[2],antithrombotic efficacy
same,activity of glutathione peroxidase (GPx),[3],elevating the activity of glutathione peroxidase (GPx)
